Assay results taken from US4067982A, “Aryl-substituted piperazinyl-alkylamino-uracils, -uracil ethers and -uracil thioethers as therapeutics” (priority 1976, dated 1978).

What was measured:
[1] = system: blood pressure of the narcotized rat; assay: Lowering of the blood pressure, narcotized rat; assay type: in vivo; parameters: unit not given here; conditions: 30% lowering
[2] = system: blood pressure increasing effect of adrenaline; assay: Inhibition of the pressor effect of adrenaline, despinalized rat; assay type: in vivo; conditions: iv, 0.001 mg/kg i.v. adrenaline, read-out: 50% inhibition of the press. effect after i.v. administration of adrenaline with
[3] = system: carotid sinus relaxation reflex of the narcotized cat; assay: Inhibition of the carotid sinus reflex, narcotized cat; assay type: in vivo; conditions: Felis catus, iv; for ED30: 30% inhibition; for ED50: 50% inhibition
[4] = system: blood pressure of the narcotized cat; assay: Lowering of the blood pressure, narcotized cat; assay type: in vivo; conditions: Felis catus, iv; for ED30: 30% lowering; for ED50: 50% lowering
[5] = system: blood pressure, circulatory system and central nervous system; conditions: recognized; cited from earlier work
[6] = system: blood pressure increasing effect of noradrenaline; assay: Inhibition of the pressor effect of noradrenaline, despinalized rat; assay type: in vivo; conditions: iv, 0.001 mg/kg i.v. noradrenaline, read-out: 50% inhibition of the press. effect after i.v. administration of noradrenaline with
[7] = system: mouse; assay: PD50, rotating rod, mouse; assay type: in vivo; conditions: ip; mouse, i.p.; dose at which an average of 50% of the mice fall from a rotating rod; read-out: PD50
Source text: The centrally inhibiting effect of the piperazinyl uracils of the invention in the mouse are apparent from Table IV. […] The selective action of the compounds of the invention on the central blood pressure mechanism can be used advantageously in human therapy in the treatment of hypertonic diseases.
a = Dose, at which an average of 50% of the mice fall from a rotating rod.

[8] = system: patients; assay: Clinical test, compatibility and sensory functions in patients; assay type: in vivo, human; conditions: two female and three male patients; 10, 20, 40 and 60 mg oral
Protocol: (§1) Clinical tests were conducted with the 1,3-dimethyl-4-(γ-[4(o-methoxyphenyl)-piperazinyl-(1)]-propylamino)- uracil on two female and three male patients, with doses of 10, 20, 40 and 60 mg orally administered.

[9] = in vivo; conditions: mouse
[10] = system: mouse; assay: Inhibition of the motility in the tread wheel, mouse; assay type: in vivo; conditions: ip, 3 h; mouse, 25 mg/kg i.p.; 5 mg/kg d-amphetamine-sulfate; 180 minutes; read-out: % Inhibition of the motility in the tread wheel by 25 mg/kg i.p.
[11] = system: systolic and diastolic blood pressure; assay: Clinical test, blood pressure in patients; assay type: in vivo, human
Protocol: as §1
Attached Diagrams 1 and 2 show the changes of the blood pressure under the effect of various doses of 1,3-dimethyl-4-(γ-[4-(o-methoxyphenyl)-piperazinyl-(1)]-propylamino)-uracil. […] Diagram 2shows the changes of the diastolic blood pressure with the same doses of the uracil compound at an average starting diastolic blood pressure (RRd) of 95.3 mm Hg plotted against the dose of the uracil compound.

[12] = system: mouse; assay: SD50, sedation symptoms, mouse; assay type: in vivo; conditions: mouse, oral; dose at which 50% show inhibition of spontaneous motility, sedation, muscle relaxation, loss of gripping; read-out: SD50 (the source's name)
Source text: b = Dose, at which at an average 50% of the mice show the following symptoms: inhibition of the spontaneous motility, sadation, muscle relaxation, loss of gripping and holding ability on a horizontal wire net.

[13] = Solubility; assay type: physicochemical
[14] = system: mouse; assay: Prolongation of sleep induced by hexobarbital, mouse; assay type: in vivo; conditions: ip; mouse, 15 mg/kg i.p.; 75 mg/kg hexobarbital; vs controls; read-out: % prolongation of sleep induced by hexobarbital by 15 mg/kg i.p.
Protocol: d = Percent prolongation of the duration of sleep of mice, which were administered 75 mg/kg hexobarbital, compared with the sleep duration of controls.

[15] = system: mouse; assay: Analgesic effect, thermal stimulation of the tail of the mouse; assay type: in vivo; conditions: oral, 25% retardation, read-out: Retardation of the defense reaction upon thermal stimulation of the tail of the mouse by 25%
Source text: The analgesic effect was thereby determined as the delay in the reaction upon thermal stimulation of the tail of the mouse.

Cc1ccc(N(CC2=NCCN2)c2cccc(O)c2)cc1 [Phentolamine, 2-[N'-p-tolyl-N'-(m-hydroxyphenyl)-aminomethyl]-2-imidiozoline, reference compound]
lowering of the blood pressure by 30% by [1]: 0.63 | ED50 [2]: 0.047 mg/kg | ED30 [3]: 0.1 mg/kg | ED50 [3]: 0.5 mg/kg | ED30 [4]: 0.1 mg/kg | ED50 [4]: 0.7 mg/kg | mechanism of phentolamine [5]: specifically inhibiting the stimulating effect of adrenaline and noradrenaline, typical alpha-blocking agent | ED50 [6]: 0.18 mg/kg

COc1ccccc1N1CCN(CCCNc2cc(=O)n(C)c(=O)n2C)CC1 [Example 4, 1,3-Dimethyl-4-(γ-[4-(o-methoxyphenyl)piperazinyl-(1)]-propylamino)-uracil]
ED50 [7]: 52 mg/kg | lowering of the blood pressure by 30% by [1]: 0.71 | compatibility [8]: excellent compatibility | effect on perception and other sensory functions [8]: no adverse effect on perception and other sensory functions | LD50 [9]: 400 mg/kg | inhibition in vivo at 25 mg/kg [10]: 36% | ED50 [2]: 0.36 mg/kg | dose response of blood pressure lowering (Diagrams 1 and 2) ([11]; doses 0 to 60 mg, average starting RRs 171.9 mm Hg, RRd 95.3 mm Hg): the blood pressure is progressively lowered in response to an increasing dose of the uracil compound | difference in the effect of a dose of 20 mg and a dose of 40 mg ([11]; patients, 20 mg vs 40 mg): statistically confirmed | lowering of the systolic and diastolic blood pressure ([11]; two female and three male patients, 10, 20, 40 and 60 mg oral): statistically significant lowering of the systolic and diastolic blood pressure | ED30 [3]: 0.03 mg/kg | ED50 [3]: 0.16 mg/kg | ED50 [12]: 100 mg/kg | solubility in aqueous acetone [13]: readily soluble in aqueous acetone | change in vivo at 15 mg/kg [14]: 71% | ED30 [4]: 0.14 mg/kg | ED50 [4]: 0.65 mg/kg | ED25 [15]: 2.4 mg/kg | ED50 [6]: 1.9 mg/kg
